Experiments:
Assay type in all cases: in vivo
[1] = test system: Alopecurus myosuroides (ALOMY); experiment: Pre-emergence herbicidal glasshouse test on Alopecurus myosuroides; conditions: pre-emergence; 1000 g/h; evaluated after 13 days
In short: (§1)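 Application rate 1000 g/h, formulated in acetone/water (50:50) with 0.5% Tween 20 and sprayed onto pots sown 1 day (pre-emergence) or 8 days (post-emergence) earlier. Evaluation at 13 days rated damage from 1 (0-19%) to 5 (80-100%).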

Setaria faberi (SETFA) [2] = experiment: Pre-emergence herbicidal glasshouse test on Setaria faberi; conditions: pre-emergence; 1000 g/h; evaluated after 13 days
In short: as §1

[3] = test system: Echinochloa crus-galli (ECHCG); experiment: Pre-emergence herbicidal glasshouse test on Echinochloa crus-galli; conditions: pre-emergence; 1000 g/h; evaluated after 13 days
In short: as §1

Solanum nigrum (SOLNI) [4] = experiment: Pre-emergence herbicidal glasshouse test on Solanum nigrum; conditions: pre-emergence; 1000 g/h; evaluated after 13 days
In short: as §1

[5] = test system: Amaranthus retoflexus (AMARE); experiment: Pre-emergence herbicidal glasshouse test on Amaranthus retoflexus; conditions: pre-emergence; 1000 g/h; evaluated after 13 days
In short: as §1

[6] = test system: Ipomoea hederacea (IPOHE); experiment: Pre-emergence herbicidal glasshouse test on Ipomoea hederacea; conditions: pre-emergence; 1000 g/h; evaluated after 13 days
In short: as §1

[7] = test system: Alopecurus myosuroides (ALOMY); experiment: Post-emergence herbicidal glasshouse test on Alopecurus myosuroides; conditions: post-emergence; 1000 g/h; evaluated after 13 days
In short: as §1

Setaria faberi (SETFA) [8] = experiment: Post-emergence herbicidal glasshouse test on Setaria faberi; conditions: post-emergence; 1000 g/h; evaluated after 13 days
In short: as §1

[9] = test system: Echinochloa crus-galli (ECHCG); experiment: Post-emergence herbicidal glasshouse test on Echinochloa crus-galli; conditions: post-emergence; 1000 g/h; evaluated after 13 days
In short: as §1

Solanum nigrum (SOLNI) [10] = experiment: Post-emergence herbicidal glasshouse test on Solanum nigrum; conditions: post-emergence; 1000 g/h; evaluated after 13 days
In short: as §1

[11] = test system: Amaranthus retoflexus (AMARE); experiment: Post-emergence herbicidal glasshouse test on Amaranthus retoflexus; conditions: post-emergence; 1000 g/h; evaluated after 13 days
In short: as §1

[12] = test system: Ipomoea hederacea (IPOHE); experiment: Post-emergence herbicidal glasshouse test on Ipomoea hederacea; conditions: post-emergence; 1000 g/h; evaluated after 13 days
In short: as §1

Structure (SMILES)	PRE Application ALOMY herbicidal damage (five point scale) [1]	PRE Application SETFA herbicidal damage (five point scale) (Setaria faberi (SETFA) [2])	PRE Application ECHCG herbicidal damage (five point scale) [3]	PRE Application SOLNI herbicidal damage (five point scale) (Solanum nigrum (SOLNI) [4])	PRE Application AMARE herbicidal damage (five point scale) [5]	PRE Application IPOHE herbicidal damage (five point scale) [6]	POST Application ALOMY herbicidal damage (five point scale) [7]	POST Application SETFA herbicidal damage (five point scale) (Setaria faberi (SETFA) [8])	POST Application ECHCG herbicidal damage (five point scale) [9]	POST Application SOLNI herbicidal damage (five point scale) (Solanum nigrum (SOLNI) [10])	POST Application AMARE herbicidal damage (five point scale) [11]	POST Application IPOHE herbicidal damage (five point scale) [12]
CC(C)OCc1ccc(-c2cnn(C)c(=O)c2O)c(S(C)(=O)=O)c1 [Compound 2.043]	3 (3=40-59% damage)	1 (1=0-19% damage)	5 (5=80-100% damage)	5 (5=80-100% damage)	5 (5=80-100% damage)	2 (2=20-39% damage)	3 (3=40-59% damage)	4 (4=60-79% damage)	5 (5=80-100% damage)	5 (5=80-100% damage)	5 (5=80-100% damage)	5 (5=80-100% damage)
Cn1ncc(-c2ccc(C(F)(F)F)cc2S(=O)(=O)Cc2ccccc2)c(O)c1=O [Compound 2.047]	1 (1=0-19% damage)	1 (1=0-19% damage)	5 (5=80-100% damage)	4 (4=60-79% damage)	2 (2=20-39% damage)	1 (1=0-19% damage)	3 (3=40-59% damage)	3 (3=40-59% damage)	5 (5=80-100% damage)	5 (5=80-100% damage)	5 (5=80-100% damage)	4 (4=60-79% damage)
Cn1ncc(-c2ccc(C(F)(F)F)cc2S(=O)(=O)N2CCOCC2)c(O)c1=O [Compound 2.049]	1 (1=0-19% damage)	2 (2=20-39% damage)	5 (5=80-100% damage)	5 (5=80-100% damage)	5 (5=80-100% damage)	4 (4=60-79% damage)	1 (1=0-19% damage)	1 (1=0-19% damage)	5 (5=80-100% damage)	5 (5=80-100% damage)	5 (5=80-100% damage)	5 (5=80-100% damage)
CCOc1nn(C)c(=O)c(O)c1-c1ccc(C(F)(F)F)cc1S(C)(=O)=O [Compound 2.050]	5 (5=80-100% damage)	5 (5=80-100% damage)	5 (5=80-100% damage)	5 (5=80-100% damage)	5 (5=80-100% damage)	5 (5=80-100% damage)	5 (5=80-100% damage)	5 (5=80-100% damage)	5 (5=80-100% damage)	5 (5=80-100% damage)	5 (5=80-100% damage)	5 (5=80-100% damage)
CCCOc1nn(C)c(=O)c(O)c1-c1ccc(C(F)(F)F)cc1S(C)(=O)=O [Compound 2.051, 4-hydroxy-2-methyl-5-[2-methylsulfonyl-4-(trifluoromethyl)phenyl]-6-propoxy-pyridazin-3-one]	5 (5=80-100% damage)	3 (3=40-59% damage)	5 (5=80-100% damage)	5 (5=80-100% damage)	5 (5=80-100% damage)	4 (4=60-79% damage)	5 (5=80-100% damage)	5 (5=80-100% damage)	5 (5=80-100% damage)	5 (5=80-100% damage)	5 (5=80-100% damage)	5 (5=80-100% damage)
CC(C)Oc1nn(C)c(=O)c(O)c1-c1ccc(C(F)(F)F)cc1S(C)(=O)=O [Compound 2.052]	4 (4=60-79% damage)	3 (3=40-59% damage)	5 (5=80-100% damage)	5 (5=80-100% damage)	5 (5=80-100% damage)	4 (4=60-79% damage)	5 (5=80-100% damage)	5 (5=80-100% damage)	5 (5=80-100% damage)	5 (5=80-100% damage)	5 (5=80-100% damage)	5 (5=80-100% damage)
Cn1ncc(-c2ccc(COCC(F)(F)F)cc2S(C)(=O)=O)c(O)c1=O [Compound 2.053]	3 (3=40-59% damage)	2 (2=20-39% damage)	5 (5=80-100% damage)	5 (5=80-100% damage)	5 (5=80-100% damage)	1 (1=0-19% damage)	3 (3=40-59% damage)	2 (2=20-39% damage)	3 (3=40-59% damage)	5 (5=80-100% damage)	5 (5=80-100% damage)	5 (5=80-100% damage)
C=Cn1ncc(-c2ccccc2S(C)(=O)=O)c(O)c1=O [Compound 2.054]	5 (5=80-100% damage)	5 (5=80-100% damage)	5 (5=80-100% damage)	5 (5=80-100% damage)	5 (5=80-100% damage)	4 (4=60-79% damage)	5 (5=80-100% damage)	5 (5=80-100% damage)	5 (5=80-100% damage)	5 (5=80-100% damage)	5 (5=80-100% damage)	5 (5=80-100% damage)
CS(=O)(=O)c1ccc(-c2cn[nH]c(=O)c2O)c(Cl)c1C1=NOCC1 [Compound 2.055]	2 (2=20-39% damage)	1 (1=0-19% damage)	2 (2=20-39% damage)	2 (2=20-39% damage)	4 (4=60-79% damage)	1 (1=0-19% damage)	3 (3=40-59% damage)	5 (5=80-100% damage)	5 (5=80-100% damage)	5 (5=80-100% damage)	5 (5=80-100% damage)	3 (3=40-59% damage)
Cn1nc(O)c(-c2ccc(C(F)(F)F)cc2S(C)(=O)=O)c(O)c1=O [Compound 2.056]	4 (4=60-79% damage)	5 (5=80-100% damage)	5 (5=80-100% damage)	5 (5=80-100% damage)	5 (5=80-100% damage)	3 (3=40-59% damage)	5 (5=80-100% damage)	5 (5=80-100% damage)	5 (5=80-100% damage)	5 (5=80-100% damage)	5 (5=80-100% damage)	5 (5=80-100% damage)

Source: patent US9693556B2, “Herbicidal pyridazinone derivatives” (SYNGENTA LIMITED, priority 2011, dated 2017)
